Reference: patent US20230173047A1, “CITRULLINATED NUCLEOPHOSMIN PEPTIDES AS CANCER VACCINES” (SCANCELL LIMITED, priority 2020, published 2023)
Where a SMILES comes first, the peptide text is derived from it. [ ]: non-standard residue; d: D form. Cit = NC(=O)NCCC[C@H](N)C(=O)O

What was measured:
Format in all cases: in vivo, mouse
[1] = test system: T cell response in HLA-DR4 and HHDII/DP4 transgenic mice; experiment: Screening of citrullinated NPM peptides for T cell (IFNy) responses in HLA-DR4 and HHDII/DP4 transgenic mice; conditions: for T cell response: citrullinated NPM peptides, HLA-DR4 and HHDII/DP4 transgenic mice, IFNy ELISpot
Method: (§1) HLA-DR4 mice (Taconic, USA) and the HHDII/HLA-DP4 transgenic strain of mouse as described in patent WO2013/017545 A1 (EMMA repository, France) were used, aged between 8 and 12 weeks, and cared for by the staff at Nottingham Trent University. All work was carried out under a Home Office project licence. Peptides were dissolved in 10% dimethylformamide to 1 mg/mL and then emulsified (a series of dilutions) with the adjuvant CpG and MPLA 6 µg/mouse of each (Invivogen, UK). Peptides (25 µg/mouse) were injected subcutaneously at the base of the tail.
(§2) ELISpot assays were performed using murine IFNy capture and detection reagents according to the manufacturer’s instructions (Mabtech, Sweden). In brief, anti-IFNʏ antibody was coated onto wells of a 96-well Immobilin-P plate. Synthetic peptides (at a variety of concentrations) and 5×10^5 per well splenocytes were added to the wells of the plate in triplicate. LPS at 5 µg/mL was used as a positive control. Peptide pulsed target cells were added where relevant at 5×10^4 per well in triplicate and plates incubated for 40 hours at 37° C. After incubation, captured IFNy was detected by a biotinylated anti-IFNʏ antibody and developed with a streptavidin alkaline phosphatase and chromogenic substrate. […] For blocking studies, anti-CD4 blocking antibody (RPA-T4) and anti-CD8 blocking antibody (2.43) from Bioxcell were used at 20 µg/mL. Spots were analysed and counted using an automated plate reader (Cellular Technologies Ltd).
T cell responses to tumour associated epitopes are often weak or non-existent due to tolerance and T cell deletion within the thymus. The citrullinated NPM peptides were screened in HLA-DR4 and HHDII/DP4 transgenic mice for their ability to stimulate IFNy responses. Every peptide containing an arginine was selected and the arginine residue was replaced with citrulline (cit).
(§3) Screening was performed to identify potential citrullinated NPM epitopes that could generate an immune response in mice. Mice were immunised with pools of 4-6 human citrullinated peptides. […] Each pool was administered subcutaneously as a single immunisation given once a week for three weeks. Each peptide pool contained 25 µg of each peptide in combination with CpG/MPLA as an adjuvant. Mice were culled 7 days after the third immunisation, the immune response to each peptide within the immunising pool were assessed by ex vivo IFNy ELISpot (FIG. 2). We have previously shown that citrullinated peptides can induce responses in the transgenic DR4 mouse strain. Given that different mouse strains have different MHC repertoires, two different transgenic strains (DR4 and DP4) were used for screening.

[2] = test system: B16 HHDII/iDP4 tumour cells; conditions: immunised tumour bearing mice
Method: as §1
For tumour challenge experiments, mice were challenged with 1×10^5 B16 HHDII/iDP4, B16F1HHDIIMHCIIKO or B16 HHDII/PAD2KOcDP4 cells subcutaneously on the right flank 3 days before primary immunisation (unless stated otherwise) and then immunised as described above. Tumour growth was monitored at 3-4 days intervals and mice humanely euthanised once tumour reached ≥10 mm in diameter.
The inventors had already established by Western blotting that the melanoma B16F1 cell lines constitutively express NPM and in vitro citrullination of NPM generates citrulline at position 277 (FIG. 5A and B). Next, the anti-tumour effect of NPM 266-285 cit peptide immunisation was assessed in vivo. The effect of immunisation with NPM 266-285 (cit and wt) on the growth of the mouse B16 melanoma cell line transfected with IFNy inducible human DP4 (iDP4) was assessed. […]

[3] = test system: splenocytes of HHDII/DP4 transgenic mice; experiment: Ex vivo IFNy ELISpot on splenocytes after peptide immunisation, HHDII/DP4 mice; conditions: for IFNy immune response to peptide: HHDII/DP4 mice immunised with peptide pools, 25 µg each + CpG/MPLA, weekly x3, vs media only
Method: as §1, §2, §3
The core epitope was confirmed by immunising mice once weekly for three weeks with 25 µg of the NPM 261-280 cit or 266-285 cit peptide. HHDII/DP4 mice were immunised with the individual peptides whereas HLA-DR4 mice were immunised with a combination of NPM 261-280 cit and 266-285 cit, all given with CpG/MPLA. Mice were culled 7 days after the third immunisation.
To determine if the immune response to the NPM 266-285 peptide is specific to the citrullinated peptide and not the wild type (wt) version, mice were immunised with NPM 266-285 cit or NPM 266-285 wt peptides. HHDII/DP4 mice received 25 µg peptide (NPM 266-285 cit or NPM 266-285 wt) subcutaneously once a week for three weeks. Mice were culled 7 days after the third immunisation, the immune response to each peptide was assessed by ex vivo ELISpot (FIGS. 4A and 4B). […] In contrast, strong IFNy responses were detected in mice immunised with NPM 266-285 cit, these responses were significant when compared to the response to the NPM 266-285 wt peptide (p=0.0002) and the control (p=<0.0001). […]

[4] = test system: splenocytes of HLA-DR4 transgenic mice; experiment: Ex vivo IFNy ELISpot on splenocytes after peptide immunisation, HLA-DR4 mice
Method: as §1
ELISpot assays were performed using murine IFNy capture and detection reagents according to the manufacturer’s instructions (Mabtech, Sweden). In brief, anti-IFNʏ antibody was coated onto wells of a 96-well Immobilin-P plate. […] After incubation, captured IFNy was detected by a biotinylated anti-IFNʏ antibody and developed with a streptavidin alkaline phosphatase and chromogenic substrate. […] Spots were analysed and counted using an automated plate reader (Cellular Technologies Ltd).
Screening was performed to identify potential citrullinated NPM epitopes that could generate an immune response in mice. […] Mice were culled 7 days after the third immunisation, the immune response to each peptide within the immunising pool were assessed by ex vivo IFNy ELISpot (FIG. 2). […]

Q: For KSNQNGKDSKPSSTP-cit-SKGQ [206-225], which T cell response [1] is on record?
A: No

Q: Which T cell response [1] does the source give for FKVDNDENEHQLSL-cit-TVSLG [31-50] here?
A: No

Q: How did the T cell response [1] turn out when EDEEEEDVKLLSISGK-cit-SAP [126-145] was run?
A: No

Q: With PPVVL-cit-LKCGSGPVHISGQH [96-115] as the molecule, how does the T cell response [1] read?
A: No

Q: Which T cell response [1] does the source give for EDVKLLSISGK-cit-SAPGGGSK [131-150] here?
A: No

Q: For CC[C@H](C)[C@H](NC(=O)[C@H](C)NC(=O)[C@H](CCC(=O)O)NC(=O)[C@H](CCC(N)=O)NC(=O)[C@H](CC(=O)O)NC(=O)[C@@H](NC(=O)[C@H](CCSC)NC(=O)[C@H](CCCNC(=N)N)NC(=O)[C@H](Cc1ccccc1)NC(=O)[C@H](CS)NC(=O)[C@H](CC(N)=O)NC(=O)[C@H](CCCCN)NC(=O)[C@@H](NC(=O)[C@H](Cc1ccc(O)cc1)NC(=O)[C@H](CC(N)=O)NC(=O)[C@@H](NC(=O)[C@H](Cc1ccccc1)NC(=O)[C@H](CCCCN)NC(=O)[C@H](C)N)[C@@H](C)CC)C(C)C)[C@@H](C)O)C(=O)N[C@@H](CCC(N)=O)C(=O)O [NPM 266-285 wt, reference compound] (H-AKFINYVKNCFRMTDQEAIQ-OH), which Associated toxicity [2] is on record?
A: no associated toxicity

Q: Which T cell response [1] does the source give for YVKNCF-cit-MTDQEAI QDLWQW [271-290] here?
A: No

Q: What does the source list for AEEKAPVKKSI-cit-DTPAKNAQ [186-205]?
A: T cell response [1]: No; IFNy immune response to peptide [3]: failed to induce an immune response

Q: For QLSL-cit-TVSLGAGAKDELHIV [41-60], which T cell response [1] is on record?
A: No

Q: GKDSKPSSTP-cit-SKGQESFKK [211-230] was tested. Which T cell response [1] did it give?
A: No

Q: For DENEHQLSL-cit-TVSLGAGAKD [36-55], which T cell response [1] is on record?
A: No

Q: Which T cell response [1] does the source give for FDDEEAEEKAPVKKSI-cit-DTP [181-200] here?
A: No

Q: With MEDSMDMDMSPL-cit-PQNYLFG [1-20] as the molecule, how does the T cell response [1] read?
A: No

Q: LSISGK-cit-SAPGGGSKVPQKK [136-155] was tested. Which T cell response [1] did it give?
A: No

Q: GFETPPVVL-cit-LKCGSGPVH [91-110] was tested. Which T cell response [1] did it give?
A: No

Q: PSSTP-cit-SKGQESFKKQEKTP [216-235] was tested. Which T cell response [1] did it give?
A: No

Q: With F-cit-MTDQEAIQDLWQWcitKSL [276-294] as the molecule, how does the T cell response [1] read?
A: No

Q: For AKFINYVKNCF-cit-MTD [NPM 266-280 cit], which T cell response [1] is on record?
A: Yes

Q: What about the “Response to core peptide compared with NPM 261-280 cit or NPM 266-285 cit” value ([3]; HHDII/DP4 transgenic mice, IFNy ELISpot) of the same molecule?
A: no significant difference

Q: And the “Response to core peptide compared with NPM 266-285 cit” value [4]?
A: significant difference

Q: CC[C@H](C)[C@H](NC(=O)[C@H](C)NC(=O)[C@H](CCC(=O)O)NC(=O)[C@H](CCC(N)=O)NC(=O)[C@H](CC(=O)O)NC(=O)[C@@H](NC(=O)[C@H](CCSC)NC(=O)[C@H](CCCNC(N)=O)NC(=O)[C@H](Cc1ccccc1)NC(=O)[C@H](CS)NC(=O)[C@H](CC(N)=O)NC(=O)[C@H](CCCCN)NC(=O)[C@@H](NC(=O)[C@H](Cc1ccc(O)cc1)NC(=O)[C@H](CC(N)=O)NC(=O)[C@@H](NC(=O)[C@H](Cc1ccccc1)NC(=O)[C@H](CCCCN)NC(=O)[C@H](C)N)[C@@H](C)CC)C(C)C)[C@@H](C)O)C(=O)N[C@@H](CCC(N)=O)C(=O)O [NPM 266-285 cit, AKFINYVKNCF-cit-MTDQEAIQ] (H-AKFINYVKNCF[Cit]MTDQEAIQ-OH) was tested. Which Associated toxicity [2] did it give?
A: no associated toxicity

Q: What does the source list for PVKKSI-cit-DTPAKNAQKSNQN [191-210]?
A: T cell response [1]: No; IFNy immune response to peptide [3]: failed to induce an immune response

Q: With DMDMSPL-cit-PQNYLFGCELKA [6-25] as the molecule, how does the T cell response [1] read?
A: No

Q: Which T cell response [1] does the source give for TVSLGGFEITPPVVL-cit-LKCG [86-105] here?
A: No

Q: “LPKVEAKFINYVKNCF-cit-MTD [NPM 261-280 cit]” was tested. Which “Frequency of IFNy responses” value ([1]; HHDII/DP4 and HLA-DR4 mice) did it give?
A: high frequency IFNy responses

Q: And the T cell response [1]?
A: Yes

Q: What about the “IFNy immune response to peptide” value [3] of the same molecule?
A: significant immune responses

Q: What about the “IFNy response to peptide” value ([3]; core epitope study, HHDII/DP4 mice immunised with individual peptide 25 µg weekly x3 + CpG/MPLA) of the same molecule?
A: Significant IFNʏ responses
